Laboratory results reported in US20100093706A1, “MULTIMEDIATOR TRANSPORTER INHIBITORS FOR USE IN TREATMENT OF CENTRAL NERVOUS SYSTEM DISORDERS” (priority 2006, published 2010).

Columns and labels:
[1] = molecular target: β1-adrenergic receptor (Homo sapiens, UniProt P08588); assay: in vitro selectivity panel, β1-adrenergic receptor; format: binding
Procedure: (§1) The in vitro selectivity profile of two representative subject compounds, (3) and (1), are also tested against a panel of other receptors, including the M1 receptor, Histamine H1 receptor, sigma-1 (σ1) receptor, β1-adrenergic receptor, and dopamine D2 receptor. Representative results are listed below in Table III: […]

[2] = molecular target: T1, DAT (SLC6A3) (Homo sapiens, UniProt Q01959); assay: in vitro inhibition profile, IC50 of DAT (uptake assay); format: cell-based
T1 construct: expressed in transfected cells
T1 sequence (Q01959 whole entry): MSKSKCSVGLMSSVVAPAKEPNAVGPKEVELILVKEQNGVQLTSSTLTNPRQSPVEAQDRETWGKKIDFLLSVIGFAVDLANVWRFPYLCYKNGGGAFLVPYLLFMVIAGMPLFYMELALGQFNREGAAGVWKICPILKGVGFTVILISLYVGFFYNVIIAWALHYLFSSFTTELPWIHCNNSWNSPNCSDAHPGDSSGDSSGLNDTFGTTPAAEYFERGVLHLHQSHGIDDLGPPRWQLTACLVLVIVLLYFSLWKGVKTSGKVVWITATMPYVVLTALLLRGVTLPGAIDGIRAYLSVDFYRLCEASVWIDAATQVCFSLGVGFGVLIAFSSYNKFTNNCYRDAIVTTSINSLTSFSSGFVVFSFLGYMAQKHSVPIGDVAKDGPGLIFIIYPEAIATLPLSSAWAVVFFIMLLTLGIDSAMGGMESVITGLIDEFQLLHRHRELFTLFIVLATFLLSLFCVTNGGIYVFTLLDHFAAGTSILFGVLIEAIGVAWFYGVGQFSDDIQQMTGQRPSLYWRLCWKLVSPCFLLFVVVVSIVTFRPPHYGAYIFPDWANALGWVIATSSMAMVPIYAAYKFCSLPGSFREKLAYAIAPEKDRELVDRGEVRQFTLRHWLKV
Procedure: Before the assay, cells expressing DAT are washed once with KRH and equilibrated for 5 min. The cells may be assayed in 24-well plates and incubated for 2-5 min. with tritiated amines. Nontransported inhibitors were preincubated for 5 min, and substrates were applied together with the tritiated substrate.
Experiments to determine the ionic requirements for DAT-mediated uptake are done in KRH buffer, substituting LiCl or choline Cl for NaCl (sodium-dependence) or substituting D-gluconates for NaCl and KCl, and Ca(NO3)2 for CaCl2 (chloride dependence). Cells are washed twice with sodium- or chloride-free KRH before the assay (each wash step at least 5 min). In all transport assays, incubation periods and substrate concentrations are chosen such that uptake obeyed first-order rate kinetics.
Vmax values for amine uptake in stable transfected DAT-cells are determined in parallel assays for at least two amines per experiment and expressed as relative values.

[3] = molecular target: T2, M1 receptor (Homo sapiens, UniProt P11229); assay: in vitro selectivity panel, M1 receptor; format: binding
T2 sequence (P11229 1-460): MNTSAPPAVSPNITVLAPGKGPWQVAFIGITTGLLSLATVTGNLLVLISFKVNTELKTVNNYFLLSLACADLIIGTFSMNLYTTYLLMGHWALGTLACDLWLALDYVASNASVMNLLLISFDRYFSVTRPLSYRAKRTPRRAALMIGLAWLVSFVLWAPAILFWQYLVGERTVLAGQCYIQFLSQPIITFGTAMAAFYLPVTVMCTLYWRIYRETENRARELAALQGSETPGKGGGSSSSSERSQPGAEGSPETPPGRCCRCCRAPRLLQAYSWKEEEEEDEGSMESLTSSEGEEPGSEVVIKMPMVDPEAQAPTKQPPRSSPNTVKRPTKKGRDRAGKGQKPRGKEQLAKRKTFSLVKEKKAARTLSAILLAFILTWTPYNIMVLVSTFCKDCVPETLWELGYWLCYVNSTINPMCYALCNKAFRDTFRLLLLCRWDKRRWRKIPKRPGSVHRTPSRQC
Procedure: as §1

Chain of β1-adrenergic receptor (P08588 whole entry): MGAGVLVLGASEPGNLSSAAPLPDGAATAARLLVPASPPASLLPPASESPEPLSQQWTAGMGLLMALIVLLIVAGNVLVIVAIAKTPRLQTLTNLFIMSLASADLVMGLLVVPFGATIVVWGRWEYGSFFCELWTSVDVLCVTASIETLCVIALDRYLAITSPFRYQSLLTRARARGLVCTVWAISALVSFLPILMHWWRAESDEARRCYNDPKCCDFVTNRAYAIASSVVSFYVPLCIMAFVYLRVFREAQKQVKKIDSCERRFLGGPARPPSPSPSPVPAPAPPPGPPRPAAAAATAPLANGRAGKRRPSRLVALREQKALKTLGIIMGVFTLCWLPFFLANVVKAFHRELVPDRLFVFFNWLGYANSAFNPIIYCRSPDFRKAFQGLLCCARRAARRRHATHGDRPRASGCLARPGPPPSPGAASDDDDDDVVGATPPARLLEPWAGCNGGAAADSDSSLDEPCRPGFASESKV

CC1CCN(CC2(c3ccc(Cl)cc3)CCC2)CC1COc1ccc(C(F)(F)F)cc1 (stereo not drawn) [(1)]
β1-adrenergic (nM)h [1]: 5000 nM | IC50 [2]: 1 nM | M1 (nM)h [3]: 5000 nM
